In BindingDB's records for doi:10.1016/s0960-894x(01)00701-6 (Pfizer, 2001):

Assay: Ability to inhibit human tissue plasminogen activator stimulator

Cc1ccc(N=C(N)N)nc1 [N-(5-Methyl-pyridin-2-yl)-guanidine]
Ki: 245 µM
